# Details: aqueous SnF2
compound,measurement,value
[F][Sn][F] [Stannous fluoride],Natural pH of stannous fluoride,about 3.2

# Source: patent publication US20200085864A1, “Stannous Fluoride Sugar Alcohol Solid Solutions” (WhiteHill Life Sciences, LLC, priority 2018, published 2020)
